This is an account of results in paper PMC8313326, “Phytochemical Analysis and Evaluation of Biological Activity of Lawsonia inermis Seeds Related to Alzheimer's Disease” (Evidence-based Complementary and Alternative Medicine : eCAM, 2021).

Like-named read-outs stand apart in the source and are kept apart here.

Assay [1] in a line: Antioxidant activity by DPPH test. The note with it: 30 min, room temperature, dark, 517 nm. For orientation: The DPPH test is a chemical assay of radical scavenging.
Description: Several concentrations of the test fraction in MeOH were prepared. Aliquots of different concentrations of the fraction (1 mL) were added to the DPPH methanolic solution (1.0 mL, 0.1 mM), and the mixtures were shaken vigorously and left for 30 min at room temperature in the dark.
In the same procedure, butylated hydroxyanisole (BHA) was used as the positive control. The DPPH radical scavenging activity of the fractions was expressed as IC50 (μg/mL), which is obtained from linear regression plot between concentrations of the test fractions and percent inhibitions.
The target in assay [2] is T1, acetylcholinesterase (AChE, E.C. 3.1.1.7, Type V-S) (Electrophorus electricus, UniProt O42275).
T1 construct: Type V-S, lyophilized powder, from electric eel; purchased Sigma-Aldrich; host or cells: electric eel
As to the kind of experiment: biochemical. The source says:
(§1) Acetylcholinesterase (AChE, E.C. 3.1.1.7, Type V-S, lyophilized powder, from electric eel, 1000 units), butyrylcholinesterase (BChE, E.C. 3.1.1.8, from equine serum), acetylthiocholine iodide (ATCI), and 5,5-dithiobis-2-nitrobenzoic acid (DTNB) were purchased from Sigma-Aldrich. Potassium dihydrogen phosphate, dipotassium hydrogen phosphate, potassium hydroxide, and sodium hydrogen carbonate were obtained from Fluka. Solvents for the extraction and column chromatography (CC) were of technical grade and redistilled before use. Deuterated solvents (100 atom % D) were obtained from Sigma-Aldrich.
(§2) In vitro anti-ChEI activity was performed against acetylcholinesterase (AChE, E.C. 3.1.1.7, Type V-S, lyophilized powder, from electric eel, 1000 units) and butyrylcholinesterase (BChE, E.C. 3.1.1.8, from equine serum) using the modified Ellman's method. […] Each well consisted of 50 μL potassium phosphate buffer (KH2PO4/K2HPO4, 0.1 M, pH 8), 25 μL prepared sample as described above, and AChE enzyme (25 μL) with a final concentration of 0.22 units/mL in the buffer. They were preincubated for 15 min at room temperature, and then, 125 μL DTNB (3 mM in buffer) was added to the mixture. […] In parallel, a blank containing all components without enzyme was used in order to account for the nonenzymatic reaction. […] The IC50 values were determined graphically from log concentration vs. % of inhibition curves. All experiments were performed in triplicate. BChE inhibition assay was performed in the same method.

For assay [3], the target named is T2, butyrylcholinesterase (BChE, E.C. 3.1.1.8) (Equus caballus, UniProt P81908).
T2 construct: butyrylcholinesterase (BChE, E.C. 3.1.1.8, from equine serum); purchased Sigma-Aldrich; host or cells: equine serum
As to the kind of experiment: biochemical.
Text: as §1, §2

In assay [4] the test system is acetylcholinesterase. The note with it: cited from earlier work.
Assay [5] deals with BChE. Set-up: method as in PMID 24354178. The note with it: cited from earlier work.

T2 sequence (P81908 whole entry): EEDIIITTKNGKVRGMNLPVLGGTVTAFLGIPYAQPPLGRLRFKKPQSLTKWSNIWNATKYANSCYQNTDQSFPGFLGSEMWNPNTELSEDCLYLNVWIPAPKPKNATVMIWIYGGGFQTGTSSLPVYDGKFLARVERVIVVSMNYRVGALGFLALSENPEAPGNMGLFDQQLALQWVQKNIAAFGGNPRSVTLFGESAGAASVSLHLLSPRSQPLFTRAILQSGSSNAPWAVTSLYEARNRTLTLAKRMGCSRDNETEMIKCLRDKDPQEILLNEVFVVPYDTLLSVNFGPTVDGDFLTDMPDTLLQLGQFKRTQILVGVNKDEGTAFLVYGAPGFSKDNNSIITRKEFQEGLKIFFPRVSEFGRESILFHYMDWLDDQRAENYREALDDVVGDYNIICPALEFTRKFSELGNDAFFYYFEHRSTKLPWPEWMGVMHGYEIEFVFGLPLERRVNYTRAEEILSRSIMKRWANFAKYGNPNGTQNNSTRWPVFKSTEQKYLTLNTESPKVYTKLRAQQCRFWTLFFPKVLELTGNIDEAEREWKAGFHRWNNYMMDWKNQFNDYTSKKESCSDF
T1 sequence (O42275 24-633): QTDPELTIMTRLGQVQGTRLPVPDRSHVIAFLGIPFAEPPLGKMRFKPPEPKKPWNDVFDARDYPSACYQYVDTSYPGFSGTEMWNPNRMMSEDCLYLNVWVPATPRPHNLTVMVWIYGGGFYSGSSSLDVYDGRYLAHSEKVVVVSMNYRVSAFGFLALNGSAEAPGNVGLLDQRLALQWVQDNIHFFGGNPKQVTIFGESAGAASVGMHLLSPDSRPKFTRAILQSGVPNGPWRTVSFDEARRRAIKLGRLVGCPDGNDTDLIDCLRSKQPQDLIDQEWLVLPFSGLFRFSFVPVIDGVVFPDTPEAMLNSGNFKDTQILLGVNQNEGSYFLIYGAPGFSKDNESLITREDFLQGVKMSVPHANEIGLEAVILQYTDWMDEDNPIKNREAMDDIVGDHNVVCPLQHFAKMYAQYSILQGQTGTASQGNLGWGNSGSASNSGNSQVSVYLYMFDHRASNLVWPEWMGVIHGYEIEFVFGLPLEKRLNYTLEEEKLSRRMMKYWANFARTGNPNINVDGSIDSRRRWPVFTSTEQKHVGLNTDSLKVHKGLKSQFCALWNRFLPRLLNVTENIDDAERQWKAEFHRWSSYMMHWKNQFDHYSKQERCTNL

With `COc1ccc(O)c(C(C)(C)C)c1` [BHA, butylated hydroxyanisole], the “DPPH free radical scavenging IC50” value in assay [1] is 3.79 ± 0.37 µg/mL.
As for `CC[C@H](CC[C@@H](C)[C@H]1CC[C@H]2[C@@H]3CC=C4C[C@@H](O)CC[C@]4(C)[C@H]3CC[C@]12C)C(C)C` [compound 1, β-Sitosterol], the IC50 in assay [2] and in assay [3] was greater than 100 µM throughout.
For the compound `CC(=O)O[C@H]1CC[C@@]2(C)C(CC[C@]3(C)C2CC=C2C4CC(C)(C)CC[C@]4(C(=O)O)CC[C@]23C)C1(C)C` (stereo partly drawn) [compound 2, 3-O-β-Acetyloleanolic acid], the half-inhibitory concentration (IC50) is greater than 100 µM in assay [2] and 77.13 ± 0.01 µM in assay [3].
On to `CC1(C)CC[C@]2(C(=O)O)CC[C@]3(C)C(=CCC4[C@@]5(C)CC[C@H](OC(=O)/C=C/c6ccc(O)cc6)C(C)(C)C5CC[C@]43C)C2C1` (stereo partly drawn) [compound 3, 3-O-(Z)-Coumaroyl oleanolic acid], for which the IC50 in assay [2] (isolated compounds, mean ± SD, three independent experiments, read-out: AChE IC50) was greater than 100 µM; in assay [3] (isolated compounds, mean ± SD, three independent experiments, read-out: BChE IC50), greater than 100 µM.
For the compound `C=C(C)[C@@H]1CC[C@]2(C(=O)O)CC[C@]3(C)[C@H](CC[C@@H]4[C@@]5(C)CC[C@H](O)C(C)(C)[C@@H]5CC[C@]43C)[C@@H]12` [compound 4, Betulinic acid], the IC50 in assay [2] and in assay [3] was greater than 100 µM in each case.
Take `CC1(C)CC[C@]2(C(=O)O)CC[C@]3(C)C(=CC[C@@H]4[C@@]5(C)CC[C@H](O)C(C)(C)[C@@H]5CC[C@]43C)[C@@H]2C1` [compound 5, Oleanolic acid]: half-maximal inhibition in assay [3] (BChE IC50, isolated compounds, mean ± SD, three independent experiments) (IC50) required 72.2 ± 0.42 µM.
`COc1ccc2c3c1O[C@H]1C[C@@H](O)C=C[C@@]31CCN(C)C2` [galantamine]: in assay [4], the “inhibitory activity against acetylcholinesterase” value is given as “significant inhibitory activity”.
In the case of `COc1ccc(C(C)=O)c(O)c1` [paeonol], the BChE inhibitory activity result in assay [5] was “selective BChE inhibitory activity”.
`CNC(=O)Oc1ccc2c(c1)[C@]1(C)CCN(C)[C@@H]1N2C` [physostigmine]: in assay [4], the “inhibitory activity against acetylcholinesterase” value is on record as “significant inhibitory activity”.
For the compound `CN1CC[C@@]23C=C[C@H](O)C[C@@H]2Oc2c(O)ccc(c23)C1` [sanguinine], the “inhibitory activity against acetylcholinesterase” value in assay [4] is “significant inhibitory activity”.
Consider hydroperoxy-24-vinylcholesterol, for which the BChE inhibitory activity entry in assay [5] is “selective BChE inhibitory activity”.

For orientation: IC50 means the midpoint of a concentration-inhibition curve.
